Test results reported in patent US20230183193A1, “4-DIFLUOROMETHYL BENZOYL AMIDES WITH HERBICIDAL ACTION” (BAYER CROPSCIENCE AKTIENGESELLSCHAFT, priority 2017, published 2023).

What was measured:
Assay type in all cases: in vivo
[1] = system: Avena fatua; experiment: Post-emergence herbicidal action, AVEFA; conditions: for Herbicidal efficacy against AVEFA: Table M
Outline: (§1)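 Visual percent activity relative to untreated controls, assessed about 3 weeks after foliar treatment, where 0% equals control growth and 100% equals death. Compounds, as wettable powders or emulsion concentrates, are sprayed onto one-leaf-stage plants in sandy loam.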

[2] = system: Veronica persica; experiment: Post-emergence herbicidal action, VERPE; conditions: Table M
Method: (§2) Seeds of monocotyledonous and dicotyledonous weed and crop plants are laid out in sandy loam soil in wood-fiber pots, covered with soil and cultivated in a greenhouse under good growth conditions. 2 to 3 weeks after sowing, the test plants are treated at the one-leaf stage. The compounds of the invention, formulated in the form of wettable powders (WP) or as emulsion concentrates (EC), are then sprayed onto the green parts of the plants in the form of an aqueous suspension or emulsion at a water application rate equating to […], with addition of 0.2% wetting agent. After the test plants have been left to stand in the greenhouse under optimal growth conditions for about 3 weeks, the action of the preparations is assessed visually in comparison to untreated controls (herbicidal action in percent (%): 100% activity=the plants have died, 0% activity=like control plants). […] At the same time, inventive compounds leave Gramineae crops such as barley, wheat, rye, millet/sorghum, corn or rice virtually undamaged when applied post-emergence, even at high active compound dosages. In addition, some substances are also harmless to dicotyledonous crops such as soya, cotton, oilseed rape, sugar beet or potatoes. Some of the compounds according to the invention have high selectivity and are therefore suitable for controlling unwanted vegetation in agricultural crops by the post-emergence method. The data of Tables C and D below illustrate, in an exemplary manner, the […] herbicidal action of the compounds according to the invention, the herbicidal activity being stated in percent.
(§3) For comparison, the herbicidal activity of numerous compounds according to the invention was tested with the structurally closest compounds known from the documents WO 2011/035874, WO 2012/028579 and WO 2012/126932, by the pre- and post-emergence method.

[3] = system: Setaria viridis; experiment: Pre-emergence herbicidal action, SETVI; conditions: for Herbicidal efficacy against SETVI: Table L
Outline: (§4)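 Percent herbicidal activity rated by eye 3 weeks after pre-emergence soil-surface application, compared with untreated pots. Seeds sat under sandy loam; sprays carried 0.2% wetting agent.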

[4] = system: Amaranthus retroflexus; experiment: Post-emergence herbicidal action, AMARE; conditions: 80 g/ha, Table D
Outline: as §1

[5] = system: Alopecurus myosuroides; experiment: Pre-emergence herbicidal action, ALOMY; conditions: for Herbicidal efficacy against ALOMY: Table L
Outline: as §4

[6] = system: Pharbitis purpureum; experiment: Post-emergence herbicidal action, PHBPU; conditions: 80 g/ha, Table D
Outline: as §1

[7] = system: Avena fatua; experiment: Pre-emergence herbicidal action, AVEFA; conditions: for Herbicidal efficacy against AVEFA: Table L
Outline: as §4

[8] = system: LOLMU; experiment: Pre-emergence herbicidal action, LOLMU; conditions: Table L
[9] = system: Polygonum convolvulus; experiment: Pre-emergence herbicidal action, POLCO; conditions: Table L
Outline: as §4

[10] = system: Matricaria inodora; experiment: Post-emergence herbicidal action, MATIN; conditions: Table M
Method: as §2, §3

[11] = system: Stellaria media; experiment: Pre-emergence herbicidal action, STEME; conditions: dosage 320 g/ha, scored visually after 3 weeks vs untreated controls
Outline: as §4

[12] = system: Viola tricolor; experiment: Post-emergence herbicidal action, VIOTR; conditions: for herbicidal activity VIOTR: 80 g/ha, Table D; for Herbicidal efficacy against VIOTR: Table M
Outline: as §1

[13] = system: Stellaria media; experiment: Post-emergence herbicidal action, STEME; conditions: 80 g/ha, Table D
Outline: as §1

[14] = system: Cyperus serotinus; experiment: Pre-emergence herbicidal action, CYPES; conditions: for Herbicidal efficacy against CYPES: Table L
Outline: as §4

[15] = system: ECHCG; experiment: Post-emergence herbicidal action, ECHCG; conditions: 80 g/ha, Table C
Outline: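 Weed and crop plants grown in sandy loam in the greenhouse, treated at the one-leaf stage 2–3 weeks after sowing. Damage scored visually after about 3 weeks vs untreated controls (0% = control, 100% = dead).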

[16] = system: Viola tricolor; experiment: Pre-emergence herbicidal action, VIOTR; conditions: for Herbicidal efficacy against VIOTR: Table L; for herbicidal activity VIOTR: scored visually after 3 weeks vs untreated controls
Outline: as §4

[17] = system: Abutilon theophrasti; experiment: Post-emergence herbicidal action, ABUTH; conditions: 80 g/ha, Table D
Outline: as §1

[18] = system: Amaranthus retroflexus; experiment: Pre-emergence herbicidal action, AMARE; conditions: dosage 320 g/ha, scored visually after 3 weeks vs untreated controls
Outline: as §4

[19] = system: Alopecurus myosuroides; experiment: Post-emergence herbicidal action, ALOMY; conditions: for herbicidal activity ALOMY: 80 g/ha, Table C; for Herbicidal efficacy against ALOMY: Table M
Outline: as §1

[20] = system: Setaria viridis; experiment: Post-emergence herbicidal action, SETVI; conditions: for herbicidal activity SETVI: 80 g/ha, Table C; for Herbicidal efficacy against SETVI: Table M
Outline: as §1

[21] = system: Matricaria inodora; experiment: Pre-emergence herbicidal action, MATIN; conditions: dosage 320 g/ha, scored visually after 3 weeks vs untreated controls
Outline: as §4

[22] = system: Abutilon theophrasti; experiment: Pre-emergence herbicidal action, ABUTH; conditions: dosage 320 g/ha, scored visually after 3 weeks vs untreated controls
Outline: as §4

[23] = dosage 320 g/ha, scored visually after 3 weeks vs untreated controls

CSc1c(C(F)F)ccc(C(=O)Nc2nnc(C)o2)c1C [Example 7-1]
Herbicidal efficacy against AVEFA ([1]; dosage 20 g/ha): 40
Herbicidal efficacy against VERPE ([2]; dosage 20 g/ha): 90
Herbicidal efficacy against SETVI ([3]; dosage 80 g/ha): 70
Herbicidal efficacy against SETVI ([3]; dosage 320 g/ha): 100
herbicidal activity AMARE [4]: 100%
Herbicidal efficacy against ALOMY ([5]; dosage 80 g/ha): 60
Herbicidal efficacy against ALOMY ([5]; dosage 320 g/ha): 70
Herbicidal activity PHBPU [6]: 90%
Herbicidal efficacy against AVEFA ([7]; dosage 80 g/ha): 20
Herbicidal efficacy against AVEFA ([7]; dosage 320 g/ha): 70
Herbicidal efficacy against LOLMU ([8]; dosage 80 g/ha): 0
Herbicidal efficacy against LOLMU ([8]; dosage 320 g/ha): 30
Herbicidal efficacy against POLCO ([9]; dosage 80 g/ha): 30
Herbicidal efficacy against POLCO ([9]; dosage 320 g/ha): 40
Herbicidal efficacy against MATIN ([10]; dosage 20 g/ha): 40
Herbicidal activity STEME [11]: 80%
herbicidal activity VIOTR [12]: 100%
Herbicidal efficacy against VIOTR ([12]; dosage 20 g/ha): 100
Herbicidal activity STEME [13]: 90%
Herbicidal efficacy against CYPES ([14]; dosage 80 g/ha): 60
Herbicidal efficacy against CYPES ([14]; dosage 320 g/ha): 70
Herbicidal activity ECHCG [15]: 100%
Herbicidal efficacy against VIOTR ([16]; dosage 80 g/ha): 90
Herbicidal efficacy against VIOTR ([16]; dosage 320 g/ha): 100
herbicidal activity VIOTR ([16]; dosage 320 g/ha): 100%
herbicidal activity ABUTH [17]: 100%
herbicidal activity AMARE [18]: 100%
herbicidal activity ALOMY [19]: 90%
Herbicidal efficacy against ALOMY ([19]; dosage 20 g/ha): 70
herbicidal activity SETVI [20]: 100%
Herbicidal efficacy against SETVI ([20]; dosage 20 g/ha): 100
herbicidal activity MATIN [21]: 80%

Cc1nnc(NC(=O)c2ccc(C(F)F)c(S(C)(=O)=O)c2C)o1 [Example 7-3]
herbicidal activity AVEFA ([1]; 80 g/ha, Table C): 100%
Herbicidal efficacy against AVEFA ([1]; dosage 20 g/ha): 90
Herbicidal efficacy against AVEFA ([1]; dosage 80 g/ha): 100
Herbicidal efficacy against VERPE ([2]; dosage 20 g/ha): 100
Herbicidal efficacy against VERPE ([2]; dosage 80 g/ha): 100
Herbicidal efficacy against SETVI ([3]; dosage 80 g/ha): 100
Herbicidal efficacy against SETVI ([3]; dosage 320 g/ha): 100
herbicidal activity SETVI [3, 23]: 100%
herbicidal activity AMARE [4]: 90%
Herbicidal efficacy against ALOMY ([5]; dosage 80 g/ha): 90
Herbicidal efficacy against ALOMY ([5]; dosage 320 g/ha): 100
herbicidal activity ALOMY [5, 23]: 100%
Herbicidal activity PHBPU [6]: 90%
Herbicidal efficacy against AVEFA ([7]; dosage 80 g/ha): 90
Herbicidal efficacy against AVEFA ([7]; dosage 320 g/ha): 100
herbicidal activity AVEFA [7, 23]: 100%
Herbicidal efficacy against LOLMU ([8]; dosage 80 g/ha): 80
Herbicidal efficacy against LOLMU ([8]; dosage 320 g/ha): 100
Herbicidal efficacy against POLCO ([9]; dosage 80 g/ha): 40
Herbicidal efficacy against POLCO ([9]; dosage 320 g/ha): 70
herbicidal activity ABUTH [22]: 100%
Herbicidal efficacy against MATIN ([10]; dosage 20 g/ha): 90
Herbicidal efficacy against MATIN ([10]; dosage 80 g/ha): 100
Herbicidal activity STEME [11]: 100%
herbicidal activity VIOTR [12]: 100%
Herbicidal efficacy against VIOTR ([12]; dosage 20 g/ha): 100
Herbicidal efficacy against VIOTR ([12]; dosage 80 g/ha): 100
Herbicidal activity STEME [13]: 100%
Herbicidal efficacy against CYPES ([14]; dosage 80 g/ha): 100
Herbicidal efficacy against CYPES ([14]; dosage 320 g/ha): 100
herbicidal activity CYPES [14, 23]: 100%
Herbicidal activity ECHCG [15]: 90%
Herbicidal efficacy against VIOTR ([16]; dosage 80 g/ha): 100
Herbicidal efficacy against VIOTR ([16]; dosage 320 g/ha): 100
herbicidal activity VIOTR ([16]; dosage 320 g/ha): 100%
herbicidal activity ABUTH [17]: 100%
herbicidal activity AMARE [18]: 100%
herbicidal activity ALOMY [19]: 100%
Herbicidal efficacy against ALOMY ([19]; dosage 20 g/ha): 60
Herbicidal efficacy against ALOMY ([19]; dosage 80 g/ha): 100
herbicidal activity SETVI [20]: 100%
Herbicidal efficacy against SETVI ([20]; dosage 20 g/ha): 90
Herbicidal efficacy against SETVI ([20]; dosage 80 g/ha): 100
herbicidal activity MATIN [21]: 100%
